Data on three molecules can be found in patent US8999691B2 (priority 2010, dated 2015).

For series [1], the target named is Botryotinia fuckeliana glucose dehydrogenase (Bfu-GDH, FAD-GDH), wild type, SEQ ID NO:2 (Botrytis cinerea, UniProt A0A384K3P1). Kind of series: Michaelis-Menten saturation kinetics with glucose (DCIP/PMS dehydrogenase assay). Type of series: biochemical. The source says: (§1) Transformants BL21(DE3) for expressing each of the modified enzymes were pre-cultured.
Series [2] addresses Botryotinia fuckeliana glucose dehydrogenase (Bfu-GDH, SEQ ID NO:2) variant G53A (Botrytis cinerea, UniProt A0A384K3P1, G69A). The settings on record: glucose 1-40 mM; pH 6.5; partially purified enzyme. The procedure: (§2) Site-specific mutagenesis was carried out by the QuikChange™ method. In the QuikChange™ method, the pET30c-Bfu-GDH created in Example 1 was used as the template, and amplified by PCR with mutagenesis primers. Next, DpnI was added to the reaction mixture and incubated at 37° C. for 60 minutes to digest the template DNA, and E. coli DH5a was transformed. After culturing overnight in an LB agar culture (50 μg/mL kanamycin), the plasmid was extracted from randomly selected clones, and the sequence was analyzed to confirm that the target mutation was introduced. The resulting PCR products were NdeI and HindIII digested (37° C., 2 hours), ligated with the same restriction enzyme-digested pET30c, and E. coli BL21(DE3) was transformed. After culturing overnight In an LB agar medium (50 μg/mL kanamycin), the plasmid was extracted from randomly selected clones, and the sequence was analyzed to confirm the mutation.
as §1

The target in series [3] is Botryotinia fuckeliana glucose dehydrogenase (Bfu-GDH, SEQ ID NO:2) variant N176S (Botrytis cinerea, UniProt A0A384K3P1, N192S). The settings on record: glucose 1-40 mM; pH 6.5; partially purified enzyme. The procedure: as §2, §1
Series [4] concerns the target Botryotinia fuckeliana glucose dehydrogenase (Bfu-GDH, SEQ ID NO:2) variant N176R (Botrytis cinerea, UniProt A0A384K3P1, N192R). To be noted: glucose 1-40 mM; pH 6.5; partially purified enzyme. The procedure: as §2, §1
Series [5] has as its target Botryotinia fuckeliana glucose dehydrogenase (Bfu-GDH, SEQ ID NO:2) variant N176E (Botrytis cinerea, UniProt A0A384K3P1, N192E). The settings on record: glucose 1-40 mM; pH 6.5; partially purified enzyme. The procedure: as §2, §1
In series [6] the target is Botryotinia fuckeliana glucose dehydrogenase (Bfu-GDH, SEQ ID NO:2) variant S514G (Botrytis cinerea, UniProt A0A384K3P1, S530G). The settings on record: glucose 1-40 mM; pH 6.5; partially purified enzyme. The procedure:
as §2, §1

Series [7] has as its target Botryotinia fuckeliana glucose dehydrogenase (Bfu-GDH, SEQ ID NO:2) variant N176K (Botrytis cinerea, UniProt A0A384K3P1, N192K). To be noted: glucose 1-40 mM; pH 6.5; partially purified enzyme. The procedure:
as §2, §1

Series [8] has as its target Botryotinia fuckeliana glucose dehydrogenase (Bfu-GDH, SEQ ID NO:2) variant G53A/S514G (Botrytis cinerea, UniProt A0A384K3P1, G69A/S530G). To be noted: glucose 1-40 mM; pH 6.5; partially purified enzyme. The procedure:
as §2, §1

For series [9], the target named is Botryotinia fuckeliana glucose dehydrogenase (Bfu-GDH, SEQ ID NO:2) variant S552C (Botrytis cinerea, UniProt A0A384K3P1, S568C). To be noted: glucose 1-40 mM; pH 6.5; partially purified enzyme. The procedure:
as §2, §1

Substrate in series [10]: OC[C@H]1OC(O)[C@H](O)[C@@H](O)[C@@H]1O
Put plainly: purified protein, by the assay type. Type of series: biochemical, Aspergillus oryzae T1. To be noted: other: glucose, DCIP/PMS, pH 6.5, enzyme expressed 20° C./28 h. The source says:
According to a prediction from the SignalP 3.0 Server, the region from the N-terminus to the Lys residue at the position 23 was predicted to be a signal peptide. A nucleotide sequence which encodes the amino acid sequence having the initiation methionine and the downstream sequence from the Asn residue at the position 24 was designed and totally synthesized. The amino acid sequence of the protein (referred to below as “Ao-GDH”) encoded by the gene thus obtained is shown in SEQ ID NO:4. E. coli BL21(DE3) (F—, ompT, hsdSB(rB- mB-), gal(λcI 857, ind1, Sam7, nin5, LacUV5-T7gene1), dcm(DE3): from Novagen) was used as the host for recombinant production. The gene expression vector used was pET30c (kan, LacI; from Novagen), and the chaperone co-expression vector used was pGro7 (GroEL, GroES; from TaKaRa).
(§3) (10-fold dilution at a final concentration).

Substrate in series [11]: OC[C@H]1OC(O)[C@H](O)[C@@H](O)[C@@H]1O
Put plainly: purified protein, by the assay type. To be noted: other: glucose, DCIP/PMS, pH 6.5, enzyme expressed 20° C./28 h. The class given is biochemical, Aspergillus oryzae T1.
Excerpt: as §3
The source holds these as a separate data set.

Regarding `OC[C@H]1OC(O)[C@H](O)[C@@H](O)[C@@H]1O` (some centres unmarked) [glucose], the Vmax in series [1] (Table 3 (unit not given), glucose) worked out at 8.7. For the same molecule, the “Vmax (apparent maximum activity)” value is on record as 8.7 U/mg protein in series [1] (glucose 1-40 mM, pH 6.5, partially purified enzyme); 8.1 U/mg protein in series [2]; 11.5 U/mg protein in [3]; 24.9 U/mg protein in series [4]; 10.4 U/mg protein in series [5]; 36.6 U/mg protein in series [6]. In addition, the “Vmax (apparent maximum activity)” value in series [7] is 25.1 U/mg protein; in series [8], 8.9 U/mg protein; in series [9] it was 7.8 U/mg protein.

B1: Aspergillus oryzae T1 glucose dehydrogenase (Ao-GDH, FAD-GDH), wild type, SEQ ID NO:4 (Aspergillus oryzae) (protein)
chain: MNTTTYDYIVVGGGTSGLVVANRLSENPDVSVLLLEAGASVFNNPDVTNANGYGLAFGSAIDWQYQSINQSYAGGKQQVLRAGKALGGTSTINGMAYTRAEDVQIDVWQKLGNEGWTWKDLLPYYLKSENLTAPTSSQVAAGAAYNPAVNGKEGPLKVGWSGSLASGNLSVALNRTFQAAGVPWVEDVNGGKMRGFNIYPSTLDVDLNVREDAARAYYFPYDDRKNLHLLENTTANRLFWKNGSAEEAIADGVEITSADGKVTRVHAKKEVIISAGALRSPLILELSGVGNPTILKKNNITPRVDLPTVGENLQDQFNNGMAGEGYGVLAGASTVTYPSISDVFGNETDSIVASLRSQLSDYAAATVKVSNGHMKQEDLERLYQLQFDLIVKDKVPIAEILFHPGGGNAVSSEFWGLLPFARGNIHISSNDPTAPAAINPNYFMFEWDGKSQAGIAKYIRKILRSAPLNKLIAKETKPGLSEIPATAADEKWVEWLKANYRSNFHPVGTAAMMPRSIGGVVDNRLRVYGTSNVRVVDASVLPFQVCGHLVSTLYAVAERASDLIKEDAKSA
Broadly, the Km is the substrate concentration at which the rate is half of its maximum. B1: in series [10], the Km was determined as 44.7 mM and the Vmax worked out at 120 µmol/min/mg.

B2: Aspergillus oryzae T1 glucose dehydrogenase (Ao-GDH, SEQ ID NO:4) variant G190C (Aspergillus oryzae; G212C) (protein)
chain: MNTTTYDYIVVGGGTSGLVVANRLSENPDVSVLLLEAGASVFNNPDVTNANGYGLAFGSAIDWQYQSINQSYAGGKQQVLRAGKALGGTSTINGMAYTRAEDVQIDVWQKLGNEGWTWKDLLPYYLKSENLTAPTSSQVAAGAAYNPAVNGKEGPLKVGWSGSLASGNLSVALNRTFQAAGVPWVEDVNCGKMRGFNIYPSTLDVDLNVREDAARAYYFPYDDRKNLHLLENTTANRLFWKNGSAEEAIADGVEITSADGKVTRVHAKKEVIISAGALRSPLILELSGVGNPTILKKNNITPRVDLPTVGENLQDQFNNGMAGEGYGVLAGASTVTYPSISDVFGNETDSIVASLRSQLSDYAAATVKVSNGHMKQEDLERLYQLQFDLIVKDKVPIAEILFHPGGGNAVSSEFWGLLPFARGNIHISSNDPTAPAAINPNYFMFEWDGKSQAGIAKYIRKILRSAPLNKLIAKETKPGLSEIPATAADEKWVEWLKANYRSNFHPVGTAAMMPRSIGGVVDNRLRVYGTSNVRVVDASVLPFQVCGHLVSTLYAVAERASDLIKEDAKSA
In the case of B2, in series [11], the Michaelis-Menten constant (Km) stood at 51.3 mM and the Vmax came out at 119 µmol/min/mg.
